≈ marks a conversion by molar mass, not a printed value. A value given as a limit tells only on which side of the number the result lay.

What all share (assay type): cell-based
In assay [1] the test system is Enterococcus faecalis ATCC-29212. Put plainly: MIC (50% NHS). The conditions noted are these: ATCC29212; Enterococcus faecalis ATCC-29212, 50% NHS.
For assay [2], the system named is Escherichia coli NCTC-13476. Kind of assay: MIC (50% NHS). The conditions noted are these: NCTC13476; Escherichia coli NCTC-13476, 50% NHS.
Assay [3] has as its system Staphylococcus aureus NRS-384. Put plainly: MIC (50% NHS). Conditions: NRS384; Staphylococcus aureus NRS-384, 50% NHS.
Assay [4] relates to Escherichia coli CCUG-59353. Kind of assay: MIC (50% NHS). Conditions: CCUG59353; Escherichia coli CCUG-59353, 50% NHS.
In assay [5] the test system is Staphylococcus aureus ATCC-29213. Put plainly: MIC (50% NHS). Conditions: ATCC29213; Staphylococcus aureus ATCC-29213, 50% NHS.
Assay [6] concerns Pseudomonas aeruginosa ATCC-BAA-47 (PAO1). Kind of assay: MIC (50% NHS).
For assay [7], the system named is Enterobacter cloacae ATCC-BAA-1143. Kind of assay: MIC (50% NHS). The conditions noted are these: ATCCBAA1143; Enterobacter cloacae ATCC-BAA-1143, 50% NHS.
Assay [8] deals with Acinetobacter baumannii ATCC 17978. Put plainly: MIC (50% NHS). Conditions: ATCC17978; Acinetobacter baumannii ATCC 17978, 50% NHS.
For assay [9], the system named is Klebsiella pneumonia ATCC-43816. Kind of assay: MIC (50% NHS). Conditions: Klebsiella pneumoniae, ATCC43816; Klebsiella pneumonia ATCC-43816, 50% NHS.
In assay [10] the test system is Enterobacter aerogenes ATCC-13048. Put plainly: MIC (50% NHS). The conditions noted are these: Klebsiella aerogenes, ATCC13048; Enterobacter aerogenes ATCC-13048, 50% NHS.
The subject of assay [11] is Staphylococcus aureus WX1-009. Put plainly: MIC (50% NHS). The conditions noted are these: WX1009; Staphylococcus aureus WX1-009, 50% NHS.
Assay [12] relates to Klebsiella pneumonia ATCC-700603. Kind of assay: MIC (50% NHS). The conditions noted are these: Klebsiella pneumoniae, ATCC700603; Klebsiella pneumonia ATCC-700603, 50% NHS.
The test system of assay [13] is Serratia marcescens Bizio ATCC-29021. Kind of assay: MIC (50% NHS). Conditions: ATCC29021; Serratia marcescens Bizio ATCC-29021, 50% NHS.
The subject of assay [14] is Escherichia coli ATCC-BAA-2340. Put plainly: MIC (50% NHS). Conditions: ATCCBAA2340; Escherichia coli ATCC-BAA-2340, 50% NHS.
The test system of assay [15] is Citrobacter werkmanii Brenner ATCC-51114. Put plainly: MIC (50% NHS). Conditions: ATCC51114; Citrobacter werkmanii Brenner ATCC-51114, 50% NHS.
The subject of assay [16] is Proteus mirabilis ATCC-29906. Put plainly: MIC (50% NHS). Conditions: ATCC29906; Proteus mirabilis ATCC-29906, 50% NHS.
Assay [17] deals with Enterococcus faecium ATCC-700221. Kind of assay: MIC (50% NHS). Conditions: ATCC700221; Enterococcus faecium ATCC-700221, 50% NHS.
Assay [18] relates to Escherichia coli ATCC-25922. Put plainly: MIC in the presence of normal human serum (50% NHS). Conditions: ATCC25922; Escherichia coli ATCC-25922, 50% NHS, Table 6; read-out: MIC. An excerpt:
As used herein, the term “MIC” refers to minimum inhibitory concentrations. Minimum inhibitory concentrations may be determined by broth microdilution according to the Clinical and Laboratory Standards Institute guidelines (see, e.g., […]-A8. Methods for dilution antimicrobial susceptibility tests for bacteria that grow aerobically: approved standard, 8th Ed.; […] One example for measuring minimum inhibitory concentrations may be found in Reck et al., 2012, J. Med. Chem. 55:6916-6933, the disclosure of which is incorporated by reference. Inoculants may be incubated on blood agar plates for 18 to 24 hours. Incubation may occur at a temperature from about 35° C. to about 37° C. […] In serum supplemented experiments, the testing medium (e.g., DMSO solution) and human serum may be mixed. The ratio of testing medium to human serum may be 1:1 (vol:vol). Plates may be read by spectrophotometry at 620 nm. Unless indicated otherwise, all inhibitory concentrations recited in the specification relate to MICs. The MIC tests were based on broth microdilution method in CLSI-M7. […] Solutions of varying concentrations of DMSO were prepared in wells of a v-bottom 96-well plate (Axygen-WIPP02280). A multi-pipette was used to perform serial dilutions as necessary. From well to well, the drug concentrations were 6.4, 3.2, 1.6, 0.8, 0.4, 0.2, 0.1, 0.05, 0.025, 0.0125, 0.00625 and 0 mg/ml in DMSO. For extremely potent antibiotic, the starting concentrations were adjusted accordingly. This was the drug mother plate. Daughter plates were prepared by placing 98 μl of a testing medium into each well of a u-bottom 96-well plate (Costar 3788). An aliquot of each 2 μl solution from each well of the mother plate was then transferred into the corresponding wells of the daughter plate using a multi-pipette work station (CyBi®-SELMA). Testing media were selected based on CLSI-M7, M11 and […]. Cation adjusted Mueller Hinton Broth (CA-MHB-212322) was the testing medium for majority of bacterial species. Brucella medium (BD-211088) supplemented with 5% LHB, 0.5% hemin and 0.1% vitamin K1 (Sigma-95271) was the testing medium for anaerobic bacteria. One day prior to the day of MIC test, bacterial strains were streaked out from -80° C. glycerol stock onto Trypticase Soy Agar (TSA) plates (Brucella blood agar for anaerobic bacteria) and incubated at 37° C. for 20 hours (in anaerobic condition for anaerobic bacteria, e.g., 80% N2, 10% H2 and 10% CO2). Single colonies of bacteria were picked by using an inoculation loop (Greiner-731175) and suspended into 5 ml sterile saline. The turbidity of the suspension was adjusted to 0.10 (Siemens MicroS can turbidity meter), which implies a concentration of colony forming units (“CFU”) of approximately 1.0×10^8 CFU/ml. The bacterial suspension was diluted 100× in testing media. For MIC experiments with NHS, testing medium and human serum (Equitech Bio Inc. BRH-949908) were mixed in the ratio of 1:1. This was used for inoculation of the daughter plates. An aliquot of 100 μl of the bacterial suspension was inoculated into each well of the daughter plates using a multi-pipette. […] The plates were incubated in ambient atmosphere and at 37° C. in an incubator for 20 hours (for anaerobic bacteria in an anaerobic condition as described above for 48 hours). The MIC values were determined and based on the standards of CLSI methods M7-A7, broth microdilution method. […] Test compounds were compared to control antibiotics Penicillin G (Sigma-13752) and levofloxacin (Sigma-28266). […] Additionally, the MIC's of another gyrase inhibitor (“GSK”) with a structure different from the inventive compounds and the antibacterial levofloxin was measured. MIC are given in μg/mL.

Assay [19] has as its system Staphylococcus aureus NRS-100. Put plainly: MIC (50% NHS). The conditions noted are these: NRS100; Staphylococcus aureus NRS-100, 50% NHS.
Assay [20] deals with Enterobacter cloacae ATCC-222. Kind of assay: MIC (50% NHS). The conditions noted are these: ATCC222; Enterobacter cloacae ATCC-222, 50% NHS.

Regarding `C[C@H]1COc2c(N3CCN(C)CC3)c(F)cc3c(=O)c(C(=O)O)cn1c23` [Levofloxin, reference compound], the minimum inhibitory concentration (MIC) in assay [1] was 2 µg/mL (≈ 5.53 µM); in assay [2], above 2 µg/mL; in assay [3], 1 µg/mL (≈ 2.77 µM); in assay [4] it was above 2 µg/mL; in assay [5], 0.5 µg/mL (≈ 1.38 µM); in [6], 1 µg/mL (≈ 2.77 µM). The MIC in assay [7] was 0.06 µg/mL (≈ 0.166 µM); in assay [8] it was 1 µg/mL (≈ 2.77 µM); in assay [9] it was 0.13 µg/mL (≈ 0.36 µM); in [10], 0.13 µg/mL (≈ 0.36 µM); in assay [11] it was above 2 µg/mL; in assay [12], 0.5 µg/mL (≈ 1.38 µM). Moreover, the MIC in assay [13] was 0.13 µg/mL (≈ 0.36 µM); in [14], above 2 µg/mL; in assay [15], 0.25 µg/mL (≈ 0.692 µM); in [16], 0.25 µg/mL (≈ 0.692 µM); in assay [17], above 2 µg/mL; in assay [18], 0.031 µg/mL. Besides, the MIC in [19] worked out at 0.5 µg/mL (≈ 1.38 µM); in assay [20], 0.06 µg/mL (≈ 0.166 µM).

As a reminder, the MIC is the smallest concentration in the dilution series that meets the test's criterion for growth inhibition.

These data come from patent US10654852B2, “Antibiotics and methods of using same” (THE BROAD INSTITUTE, INC., priority 2016, dated 2020).
